# In US4181714A (priority 1977, dated 1980):
# Columns and labels:
# Pyricularia oryzae = type: in vivo; settings: blast of rice, 20 ppm in sprayed dilution
# blast of rice = settings: commercially available antibiotic chemical; cited from earlier work
# plants = assay: Phytotoxicity (general statement); type: in vivo
# [1] = test system: Colletotrichum lagenarium; assay: Test on control effect on anthracnose in cucumber; type: in vivo; settings: 1000 ppm in sprayed composition
# Procedure: Cucumber seedlings (Sagami Hanpaku variety) planted one plant per pot were used for the test, and each test area included three pots. After seeding was carried out by using Kureha Soil, the pots were kept for 2 weeks in an air-conditioned green house (maximum daytime temperature=28° C., minimum night temperature=20° C., light illumination time=12 hours per day, light source=sunglow lamp) to grow the cucumber plants.
# A chemical composition having a predetermined concentration, which was prepared according to the method described in Example 3 was sprayed on the plants by a spray gun and the plants were air-dried for 2 hours in a green house.
# Spores of a pathogenic fungus causing anthracnose in cucumber (Colletotrichum lagenarium), which had been cultured for 10 days at 23° C. in an agar slant culture medium of sweet corn, were taken into sterilized water, and one drop of a spreader was added to 50 cc of the spore suspension. In an inoculation box, the spore suspension was sprayed on the plants in an amount of 50 cc per 50 seedling by a spray gun to effect inoculation. […]
# The total number of disease spots on leaves of the plants of each area was counted and the control value was calculated according to the following formula: [formula]
compound,measurement,setting,value
"CN(CC[C@H](N)CC(=O)N[C@H]1C=C[C@H](n2ccc(N)nc2=O)O[C@@H]1C(=O)O)C(=N)N [Blasticidin S, blasticidinS-benzylaminobenzene-sulfonate]",Control Value,Pyricularia oryzae,95%
same,Specificity of controlling effect,blast of rice,specific effect on blast of rice alone
"manganous ethylene1,2-bis-dithiocarbomate- [Maneb-Dithane]",Phytotoxicity,plants,causes phytotoxicity
same,Control Value,[1],95%
